Legend:
[1] = tested on: Vesicular stomatitis virus (VSV) particles encoding luciferase and pseudotyped with EboV GP; experiment: microbe, parasite or virus in culture; type: cell-based, Ebola virus; settings: for inhibition at 10 µM: compound concentration 10 μM; for inhibition at 2 µM: compound concentration 2 μM

SMILES | inhibition at 10 µM [1] [%] | melting point [°C] | inhibition at 2 µM [1] [%]
COC(=O)c1ccc(COc2ccccc2CN2CCN(Cc3ccc4nc(-c5ccccn5)[nH]c4c3)CC2)cc1 [Compound E14, N1-[[2-[(4-methoxycarbonylphenyl)methoxy]phenyl]methyl]-N4-[[2-(2-pyridyl)-benzimidazol-5-yl]methyl]-piperazine] | 80 | – | –
FC(F)(F)Oc1cccc(CN2CCN(Cc3ccc4nc(-c5ccccn5)[nH]c4c3)CC2)c1 | – | 65 | –
Cc1ccc(NC(=O)N2CCN(Cc3ccc4nc(-c5cccnc5)[nH]c4c3)CC2)cc1 | – | 174 | –
COC(=O)c1ccc(COc2ccccc2CN2CCN(Cc3ccc4nc(-c5cccc(C(F)(F)F)c5)[nH]c4c3)CC2)cc1 [Compound E16, N1-[[2-[3-(trifluoromethyl)phenyl]-benzimidazol-5-yl]methyl]-N4-[[2-[(4-methoxycarbonylphenyl)methoxy]phenyl]methyl]-piperazine] | 91.6 | 102 | 64.1
O=C(c1ccc2nc(-c3ccccc3)[nH]c2c1)N1CCN(Cc2ccc(C(F)(F)F)cc2)CC1 | – | 220 | –
CCOP(=O)(Cc1cccc(COc2ccccc2CN2CCN(Cc3ccc4nc(-c5cccc(C(F)(F)F)c5)[nH]c4c3)CC2)c1)OCC [Compound E59] | < 20 | – | –
O=C(c1ccc2nc(C(c3ccccc3)c3ccccc3)[nH]c2c1)N1CCN(Cc2ccc(C(F)(F)F)cc2)CC1 | – | 148 | –
O=C(c1ccc2nc(C(c3ccccc3)c3ccccc3)[nH]c2c1)N1CCN(Cc2ccc(OC(F)(F)F)cc2)CC1 | – | 120 | –
O=C(Nc1ccc(C(F)(F)F)cc1)N1CCN(Cc2ccc3nc(-c4ccccn4)[nH]c3c2)CC1 [Compound E52, N1-[[2-(2-pyridyl)-benzimidazol-5-yl]methyl]-N4-[[4-(trifluoromethyl)phenyl]carbamoyl]-piperazine] | 82.9 | – | 64.3
COC(=O)c1ccc(COc2ccccc2CN2CCN(C(=O)c3ccc4nc(-c5ccccc5)[nH]c4c3)CC2)cc1 [Compound E17, N1-[[2-[(4-methoxycarbonylphenyl)methoxy]phenyl]methyl]-N4-(2-phenyl-benzimidazole-5-carbonyl)-piperazine] | < 20 | 255 | –
COC(=O)c1ccc(COc2ccccc2CN2CCN(C(=O)c3ccc4nc(-c5cccnc5)[nH]c4c3)CC2)cc1 [Compound E19, N1-[[2-[(4-methoxycarbonylphenyl)methoxy]phenyl]methyl]-N4-[2-(3-pyridyl)-benzimidazole-5-carbonyl]-piperazine] | < 20 | – | –
FC(F)(F)c1ccc(CN2CCN(Cc3ccc4nc(-c5ccccc5)[nH]c4c3)CC2)cc1 | – | 178 | –
FC(F)(F)Oc1ccc(CN2CCN(Cc3ccc4nc(-c5ccccn5)[nH]c4c3)CC2)cc1 | – | 64 | –
COC(=O)c1ccc(COc2ccccc2CN2CCN(Cc3ccc4nc(-c5ccc(C(F)(F)F)cc5)[nH]c4c3)CC2)cc1 [Compound E15, N1-[[2-[4-(trifluoromethyl)phenyl]-benzimidazol-5-yl]methyl]-N4-[[2-[(4-methoxycarbonylphenyl)methoxy]phenyl]methyl]-piperazine] | 93.5 | – | 2
FC(F)(F)Oc1cccc(CN2CCN(Cc3ccc4nc(C(c5ccccc5)c5ccccc5)[nH]c4c3)CC2)c1 | – | 86 | –
FC(F)(F)c1ccc(CN2CCN(Cc3ccc4nc(-c5cccnc5)[nH]c4c3)CC2)cc1 | – | 138 | –

SMILES | inhibition at 10 µM [1] [%] | melting point [°C] | inhibition at 2 µM [1] [%]
O=C(c1ccc2nc(C(c3ccccc3)c3ccccc3)[nH]c2c1)N1CCN(Cc2cccc(OC(F)(F)F)c2)CC1 | – | 76 | –
O=C(COc1ccc(Cl)cc1)N1CCN(Cc2ccc3nc(C(c4ccccc4)c4ccccc4)[nH]c3c2)CC1 | – | 194 | –
O=C(c1ccc2nc(-c3ccccn3)[nH]c2c1)N1CCN(Cc2ccc(OC(F)(F)F)cc2)CC1 | – | 190 | –
COC(=O)c1ccc(COc2ccccc2CN2CCN(C(=O)c3ccc4nc(C(c5ccccc5)c5ccccc5)[nH]c4c3)CC2)cc1 [Compound E18, N1-(2-benzhydryl-benzimidazole-5-carbonyl)-N4-[[2-[(4-methoxycarbonylphenyl)methoxy]phenyl]methyl]-piperazine] | < 20 | 196 | –
COC(=O)c1ccc(COc2ccccc2CN2CCN(Cc3ccc4nc(-c5ccccc5)[nH]c4c3)CC2)cc1 [Compound E11, N1-[[2-[(4-methoxycarbonylphenyl)methoxy]phenyl]methyl]-N4-[(2-phenyl-benzimidazol-5-yl)methyl]-piperazine] | 95 | – | –
O=C(COc1ccc(Cl)cc1)N1CCN(Cc2ccc3nc(-c4ccccn4)[nH]c3c2)CC1 | – | 138 | –
O=C(OCc1ccccc1)N1CCN(C(=O)c2ccc3nc(-c4ccccn4)[nH]c3c2)CC1 | – | 165 | –
O=C(c1ccc2nc(-c3ccccn3)[nH]c2c1)N1CCN(Cc2cccc(OC(F)(F)F)c2)CC1 | – | 100 | –
FC(F)(F)Oc1ccc(CN2CCN(Cc3ccc4nc(-c5cccnc5)[nH]c4c3)CC2)cc1 | – | 88 | –
O=C(Nc1ccc(C(F)(F)F)cc1)N1CCN(Cc2ccc3nc(C(c4ccccc4)c4ccccc4)[nH]c3c2)CC1 | – | 172 | –
FC(F)(F)Oc1cccc(CN2CCN(Cc3ccc4nc(-c5cccnc5)[nH]c4c3)CC2)c1 | – | 110 | –
COC(=O)c1ccc(COc2ccccc2CN2CCN(C(=O)c3ccc4nc(-c5ccccn5)[nH]c4c3)CC2)cc1 [Compound E20, N1-[[2-[(4-methoxycarbonylphenyl)methoxy]phenyl]methyl]-N4-[2-(2-pyridyl)-benzimidazole-5-carbonyl]-piperazine] | < 20 | 96 | –
CCOP(=O)(Cc1ccc(COc2ccccc2CN2CCN(Cc3ccc4nc(-c5cccc(C(F)(F)F)c5)[nH]c4c3)CC2)cc1)OCC [Compound E57] | < 20 | – | –
FC(F)(F)c1ccc(CN2CCN(Cc3ccc4nc(C(c5ccccc5)c5ccccc5)[nH]c4c3)CC2)cc1 [Compound E22, N1-[(2-benzhydryl-benzimidazol-5-yl)methyl]-N4-[4-(trifluoromethyl)benzyl]-piperazine] | 80 | 236 | < 20
FC(F)(F)Oc1cccc(CN2CCN(Cc3ccc4nc(-c5ccccc5)[nH]c4c3)CC2)c1 [Compound E29, N1-[3-(trifluoromethoxy)benzyl]-N4-[(2-phenyl-benzimidazol-5-yl)methyl]-piperazine] | 80 | 80 | < 20

Source: patent US11479571B2 (priority 2016, dated 2022)
